In patent publication US11390617B2, “Methods of treating non-Hodgkin lymphoma using 2-(2,6-dioxopiperidin-3-yl)-4-((2-fluoro-4-((3-morpholinoazetidin-1-yl)methyl)benzyl)amino)isoindoline-1,3-dione” (Celgene Corporation, priority 2019, dated 2022):

How the values were obtained:
Assay in all cases: NHL cell line viability/apoptosis 384-well flow cytometry assay
Type in all cases: cell-based
[1] = system: Mino; details: Mino (MCL), 120 hours
Experimental: (§1) The following exemplary anti-proliferative assay uses exemplary non-Hodgkin lymphoma (NIL) cell lines (including diffuse large B-cell lymphoma (DLBCL), follicular lymphoma (FL), and mantle cell lymphoma (MCL)) (Table 5). The in vitro growth inhibitory activity of Compound 1 described herein was evaluated using a 384-well flow cytometry assay.
(§2) The cell lines in Table 5 were plated in 384-well flat bottom plates and assessed with increasing concentrations of compound ranging from 0.00015 to 10 μM or dimethyl sulfoxide (DMSO) control. The final concentration of DMSO was 0.1% (v/v). Following the addition of Compound 1 or DMSO and incubation for 120 hours, cell number and cell death were analyzed by flow cytometry (Attune®, Thermo Fisher) using Annexin V and the live-cell impermeant DNA dye, DRAQ7. Phosphatidylserine translocates from the inner layer to the outer layer of the cell membrane early in apoptosis and Annexin V binds to the exposed phosphatidylserine found on the surface of an apoptotic cell. The vital dye DRAQ7 is excluded by intact live cells and only stains cells that have died as a result of apoptosis or necrosis.
(§3) Flow cytometry data analysis was then performed using the Flow Jo_v10 software to determine the number of viable cells (Annexin V and DRAQ7 double negative staining cells) and percentage of apoptotic cells (Annexin V positive cells) for each condition. The live cell count for every concentration was normalized to the DMSO control (considered as 100%) to calculate the percentage of viable cells remaining after treatment and graphed using GraphPad Prism 7.03. The IC50 (50% inhibitory concentration) and Emax (maximum efficacy achieved) values were then calculated by performing nonlinear regression curve fitting using log(inhibitor) vs. normalized response—variable slope analysis on GraphPad Prism 7.03. Area under the curve (AUC) was calculated by performing area under curve analysis on GraphPad Prism 7.03. Similarly, for apoptosis analysis, the percentage of apoptosis combining both “early” (Annexin V positive and DRAQ7 negative) and “late” apoptosis (Annexin V and DRAQ7 positive) cell gates relative to DMSO was graphed using GraphPad Prism 7.03. The AUC, EC50 (concentration of Compound 1 that produces half-maximal apoptosis response) and Ymax (maximal percentage of apoptosis achieved) values from apoptosis curves were calculated by performing area under curve analysis and nonlinear regression curve fitting using log(agonist) vs. normalized response—Variable slope analysis on GraphPad Prism 7.03.
(§4) In Table 6, dose-response proliferation curves for the panel of NHL cell lines and non-linear curve-fit regression were used to determine IC50, AUC, and Emax for % viable cells (Emax for viability varies between 100 at low doses and 0 at high doses, which corresponds to inhibition of all viable cells), and dose-response apoptosis curves were used to determine the EC50, AUC, and Ymax for % apoptosis (Ymax for apoptosis varies from 0 at low doses and 100 at higher doses which corresponds to death of all cells). Tumor cells were exposed to serial dilutions (0.00015 to 10 μM) of Compound 1 or dimethyl sulfoxide (DMSO) control for 5 days. Viability and apoptosis for all cell lines was determined by Annexin V/[…] flow cytometry.

[2] = system: WILL-2; details: WILL-2 (DLBCL), 120 hours
Experimental: as §1, §2, §3, §4

[3] = system: U-2946; details: U-2946 (DLBCL), 120 hours
Experimental: as §1, §2, §3, §4

[4] = system: U-2932; details: U-2932 (DLBCL), 120 hours
Experimental: as §1, §2, §3, §4

[5] = system: ROS-50; details: ROS-50 (DLBCL), 120 hours
Experimental: as §1, §2, §3, §4

[6] = system: KARPAS-422; details: KARPAS-422 (DLBCL), 120 hours
Experimental: as §1, §2, §3, §4

[7] = system: WSU-DLCL2; details: WSU-DLCL2 (DLBCL), 120 hours
Experimental: as §1, §2, §3, §4

[8] = system: STR428; details: STR428 (DLBCL), 120 hours
Experimental: as §1, §2, §3, §4

[9] = system: KARPAS-1106P; details: KARPAS-1106P (DLBCL), 120 hours
Experimental: as §1, §2, §3, §4

[10] = system: OCI-LY18; details: OCI-LY18 (DLBCL), 120 hours
Experimental: as §1, §2, §3, §4

[11] = system: NU-DHL-1; details: NU-DHL-1 (DLBCL), 120 hours
Experimental: as §1, §2, §3, §4

[12] = Homo sapiens, read-out: IC50 (% Viable Cells)
[13] = read-out: IC50 (% Viable Cells)

O=C1CC[C@H](N2C(=O)c3cccc(NCc4ccc(CN5CC(N6CCOCC6)C5)cc4F)c3C2=O)C(=O)N1 [Compound 1, (S)-2-(2,6-dioxopiperidin-3-yl)-4-((2-fluoro-4-((3-morpholinoazetidin-1-yl)methyl)benzyl)amino)isoindoline-1,3-dione]
EC50 ([1]; Homo sapiens): 2.05 nM
IC50 [1, 12]: 5.78 nM
AUC (% Viable Cells) [1]: 62.67
AUC (Apoptosis) [1]: 968.2
Emax (% Viable Cells) [1]: 5.638%
Ymax (Apoptosis) [1]: 97.04%
AUC (% Viable Cells) [2]: 17.1
AUC (Apoptosis) [2]: 916.9
EC50 [2]: 89.7 nM
Emax (% Viable Cells) [2]: 0.03115%
Ymax (Apoptosis) [2]: 99.43%
IC50 [2, 13]: 2.36 nM
AUC (% Viable Cells) [3]: 45.47
AUC (Apoptosis) [3]: 762.6
EC50 [3]: 192 nM
Emax (% Viable Cells) [3]: 0.4821%
Ymax (Apoptosis) [3]: 93.34%
IC50 [3, 13]: 4.6 nM
EC50 ([4]; Homo sapiens, U2932): 567 nM
IC50 ([4]; Homo sapiens, U2932, read-out: IC50 (% Viable Cells)): 36 nM
AUC (% Viable Cells) [4]: 163.7
AUC (Apoptosis) [4]: 212.8
Emax (% Viable Cells) [4]: 12.8%
Ymax (Apoptosis) [4]: 25.81%
AUC (% Viable Cells) [5]: 762.1
AUC (Apoptosis) [5]: 87.92
EC50 [5]: 335 nM
Emax (% Viable Cells) [5]: 65.57%
Ymax (Apoptosis) [5]: 10.9%
IC50 [5, 13]: ≥ 10 µM
EC50 ([6]; Homo sapiens): 46.1 nM
IC50 [6, 12]: 13.1 nM
AUC (% Viable Cells) [6]: 19.97
AUC (Apoptosis) [6]: 911.9
Emax (% Viable Cells) [6]: 0.8721%
Ymax (Apoptosis) [6]: 93.99%
EC50 ([7]; Homo sapiens, WSUDLCL2): 84.7 nM
IC50 ([7]; Homo sapiens, WSUDLCL2, read-out: IC50 (% Viable Cells)): 16.9 nM
AUC (% Viable Cells) [7]: 36.7
AUC (Apoptosis) [7]: 858.9
Emax (% Viable Cells) [7]: 1.387%
Ymax (Apoptosis) [7]: 92.1%
AUC (% Viable Cells) [8]: 43.48
AUC (Apoptosis) [8]: 905.9
EC50 [8]: 102 nM
Emax (% Viable Cells) [8]: 1.227%
Ymax (Apoptosis) [8]: 95.17%
IC50 [8, 13]: 94.7 nM
EC50 ([9]; Homo sapiens): 91.8 nM
IC50 [9, 12]: 17.5 nM
AUC (% Viable Cells) [9]: 22.22
AUC (Apoptosis) [9]: 885.2
Emax (% Viable Cells) [9]: 0.1698%
Ymax (Apoptosis) [9]: 97.08%
EC50 ([10]; Homo sapiens): 2.98 nM
IC50 [10, 12]: 0.944 nM
AUC (% Viable Cells) [10]: 1.965
AUC (Apoptosis) [10]: 965.2
Emax (% Viable Cells) [10]: 0.05973%
Ymax (Apoptosis) [10]: 97.44%
EC50 ([11]; Homo sapiens): 1.27 nM
IC50 [11, 12]: 1.07 nM
AUC (% Viable Cells) [11]: 12.37
AUC (Apoptosis) [11]: 981.8
Emax (% Viable Cells) [11]: 0.4919%
Ymax (Apoptosis) [11]: 99.17%
